Data taken from publication PMC12624727, “Benzodeazaoxaflavin Sirtuin Inhibitors Inhibit Schistosoma mansoni Sirt2 and Cause Phenotypic Changes and Lethality in Schistosomula and Adult Worm Stages” (ACS Infectious Diseases, 2025).
Read-outs that look alike come from different tables or passages of the source.

Key:
[1] = tested on: adult S. mansoni (Liberian strain) worm pairs; assay: Adult worm (Liberian strain) in vitro viability assay; type: cell-based, Schistosoma mansoni; conditions: for adult worms' percentage of viability reduction, 72 h: SD in brackets; for IC50: Schistosoma mansoni, 72 h, Liberian strain
[2] = tested on: S. mansoni (Puerto Rican) worm pairs; assay: Worm pairing of adult worm pairs (Puerto Rican strain); type: cell-based, Schistosoma mansoni; conditions: % of DMSO control
[3] = tested on: S. mansoni (Puerto Rican) worm pairs; assay: Egg laying by adult worm pairs (Puerto Rican strain); type: cell-based, Schistosoma mansoni; conditions: % of DMSO control
SmSirt2 = SmSirt2 (Schistosoma mansoni, UniProt T1VXA1); assay: In vitro SmSirt2 inhibition assay, homogeneous fluorescence-based, ZMAL substrate; type: biochemical; conditions: for IC50: read-out: IC50 SmSirt2, ZMAL substrate
Experimental: We first improved the synthetic method to obtain most of the BDFs analogues 1–12 (Figure ), and we tested them against recombinant SmSirt2 using a homogeneous, fluorescent-based in vitro assay with (Z)-(Ac)-Lys-7-amino-4-methylcoumarin (ZMAL) as the substrate.
The BDF4 compounds 1–12 were tested for their inhibitory activity against SmSirt2 using a fluorescence-based assay with ZMAL as the substrate. Their activity against hSirt2 has been previously reported. ,
For the screening of compounds 1–12, a homogeneous fluorescence-based assay previously described by some of us was used to determine SmSirt2 activity.

[4] = tested on: S. mansoni newly transformed schistosomula (NTS), Liberian strain; assay: NTS (Liberian strain) in vitro viability assay; type: cell-based, Schistosoma mansoni; conditions: for percentage of reduction of NTS viability, 72 h: SD in brackets; for IC50: 72 h, Liberian strain
[5] = tested on: adult S. mansoni (Puerto Rican strain) worm pairs; conditions: for reduction of viability of adult worm pairs: concentration not given, Puerto Rican strain; for viability of adult worm pairs after recovery: both, Puerto Rican, Schistosoma mansoni
hSirt2 = conditions: cited from earlier work
[6] = tested on: cytochrome c release in S. mansoni (Puerto Rican strain) worms; assay: Western blot of cytosolic cytochrome c in worm extracts; type: cell-based, Schistosoma mansoni; conditions: 1 μM, 24 h (legend of Figure 5)
Experimental: To determine if the Sirt2 inhibitors trigger apoptosis through the cytochrome c pathway, we examined cytochrome c release from mitochondria.
5 Effects of selected Sirt2 inhibitors on cytosolic cytochrome c expression. Representative immunoblots of cytosolic protein fractions extracted from S. mansoni adult worm pairs are shown. The worms were treated with the indicated Sirt2 inhibitors (10 μM) for 48 h. DMSO (vehicle), TSA (1 μM, 24 h), a HDAC pan-inhibitor, and salermide (Sal 25 μM, 48 h), a Sirt1/Sirt2 inhibitor, were used as controls. The α-tubulin signal was used for normalization. Quantitation of cytochrome c relative to the vehicle-treated sample is shown.
Ten pairs of adult parasites were treated with selected Sirt inhibitors for either 24 or 48 h at partially lethal and sublethal concentrations. The concentrations of compounds were chosen based on the viability curve. Positive controls in the experiments included TSA, a pan-HDAC inhibitor, and salermide, a hSirt1/2 inhibitor, while DMSO (vehicle) served as negative control. Parasites were lysed in a 0.5% Triton PBS buffer by strokes, and the lysates were then centrifuged to collect the soluble fractions (cytosol). The insoluble fractions were extracted with 0.25 N HCl at +4 °C for 18 h, followed by neutralization with 1/10 volume of 2 N NaOH. Samples were analyzed using 15% SDS-PAGE and Western blotting. […]

[7] = ref footnote b (reference number not given)

SmSirt2, sequence (T1VXA1 entry or part of it): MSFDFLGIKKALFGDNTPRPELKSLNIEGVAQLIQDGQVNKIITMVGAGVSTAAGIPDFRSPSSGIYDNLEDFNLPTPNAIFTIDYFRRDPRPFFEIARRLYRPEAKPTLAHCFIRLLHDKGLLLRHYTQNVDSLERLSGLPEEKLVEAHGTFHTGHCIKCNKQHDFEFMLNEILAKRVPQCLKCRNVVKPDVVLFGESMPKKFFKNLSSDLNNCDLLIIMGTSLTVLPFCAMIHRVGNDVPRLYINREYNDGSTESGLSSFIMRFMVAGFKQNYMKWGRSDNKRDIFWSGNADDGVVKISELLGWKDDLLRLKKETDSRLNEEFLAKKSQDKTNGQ

## O=c1nc2oc3ccc4ccccc4c3cc-2c(=O)[nH]1 [Compound 1, 7-Oxa-8,10-Diazabenzo[a]anthracene-9,11-dione]
[1]; 10 μM
  adult worms' percentage of viability reduction, 72 h: 27.5 (2) %
[1]; 20 μM
  adult worms' percentage of viability reduction, 72 h: 85.7 (7.2) %
[1]
  IC50: > 10 µM
[2]; 1 μM, 24 h, single experiment
  % worm pairing: 100%
[2]; 1 μM, 48 h, single experiment
  % worm pairing: 100%
[2]; 1 μM, 72 h, single experiment
  % worm pairing: 100%
[2]; 10 μM, 24 h, SD in brackets
  % worm pairing: 100 (0) %
[2]; 10 μM, 48 h, SD in brackets
  % worm pairing: 100 (0) %
[2]; 10 μM, 72 h, SD in brackets
  % worm pairing: 100 (0) %
[2]; 20 μM, 24 h, SD in brackets
  % worm pairing: 100 (0) %
[2]; 20 μM, 48 h, SD in brackets
  % worm pairing: 100 (0) %
[2]; 20 μM, 72 h, SD in brackets
  % worm pairing: 100 (0) %
[3]; 1 μM, 24 h, single experiment
  % egg laying: 79%
[3]; 1 μM, 48 h, single experiment
  % egg laying: 90%
[3]; 1 μM, 72 h, single experiment
  % egg laying: 116%
[3]; 10 μM, 24 h, SD in brackets
  % egg laying: 93 (27) %
[3]; 10 μM, 48 h, SD in brackets
  % egg laying: 97 (14) %
[3]; 10 μM, 72 h, SD in brackets
  % egg laying: 122 (14) %
[3]; 20 μM, 24 h, SD in brackets
  % egg laying: 56 (22) %
[3]; 20 μM, 48 h, SD in brackets
  % egg laying: 75 (19) %
[3]; 20 μM, 72 h, SD in brackets
  % egg laying: 109 (47) %
SmSirt2; SmSirt2 vs hSirt2
  selectivity toward SmSIRT2 over the human isoform: selectively active against the parasite enzyme
SmSirt2
  IC50: 3.8 ± 0.3 µM
[4]; 0.1 μM
  percentage of reduction of NTS viability, 72 h: 16.7 (0) %
[4]; 1 μM
  percentage of reduction of NTS viability, 72 h: 90 (1.7) %
[4]; 10 μM
  percentage of reduction of NTS viability, 72 h: 100 (0) %
[4]; 20 μM
  percentage of reduction of NTS viability, 72 h: 100 (0) %
[4]
  IC50: 0.25 µM
[4]; Schistosoma mansoni
  IC50: ~0.2 µM
[5]; 72 h
  reduction of viability of adult worm pairs: 20%
hSirt2; ref footnote a (reference number not given)
  IC50: > 50 µM

## Cn1c(=O)nc2oc3ccc4ccccc4c3cc-2c1=O [Compound 2, 10-Methyl-9H-benzo[5,6]chromeno[2,3-d]pyrimidine-9,11(10H)-dione]
[1]; 10 μM
  adult worms' percentage of viability reduction, 72 h: 37.3 (3.9) %
[1]; 20 μM
  adult worms' percentage of viability reduction, 72 h: 82.1 (3.6) %
[1]
  IC50: > 10 µM
SmSirt2
  IC50: 2.3 ± 0.1 µM
[4]; 0.1 μM
  percentage of reduction of NTS viability, 72 h: 20.8 (0) %
[4]; 1 μM
  percentage of reduction of NTS viability, 72 h: 43.8 (2.1) %
[4]; 10 μM
  percentage of reduction of NTS viability, 72 h: 61.5 (3.8) %
[4]; 20 μM
  percentage of reduction of NTS viability, 72 h: 85.7 (3.6) %
[4]; Schistosoma mansoni
  IC50: 1.5 µM
hSirt2; [7]
  IC50: 11.2 ± 0.3 µM

## CCn1c(=O)nc2oc3ccc4ccccc4c3cc-2c1=O [Compound 3, 10-Ethyl-9H-benzo[5,6]chromeno[2,3-d]pyrimidine-9,11(10H)-dione]
[1]; 10 μM
  adult worms' percentage of viability reduction, 72 h: 49 (0) %
[1]; 20 μM
  adult worms' percentage of viability reduction, 72 h: 80.3 (5.4) %
[1]
  IC50: > 10 µM
SmSirt2
  IC50: 12.6 ± 2.2 µM
[4]; 1 μM
  percentage of reduction of NTS viability, 72 h: 40 (0) %
[4]; 10 μM
  percentage of reduction of NTS viability, 72 h: 100 (0) %
[4]; 20 μM
  percentage of reduction of NTS viability, 72 h: 100 (0) %
[4]; Schistosoma mansoni
  IC50: 1.03 µM
hSirt2; [7]
  IC50: 30 ± 1.2 µM

## C=CCn1c(=O)nc2oc3ccc4ccccc4c3cc-2c1=O [Compound 4, 10-Allyl-9H-benzo[5,6]chromeno[2,3-d]pyrimidine-9,11(10H)-dione]
[1]; 1 μM
  adult worms' percentage of viability reduction, 72 h: 40.7 (3.7) %
[1]; 20 μM
  adult worms' percentage of viability reduction, 72 h: 94.4 (0) %
[1]
  IC50: 2.03 µM
[2]; 1 μM, 24 h, single experiment
  % worm pairing: 100%
[2]; 1 μM, 48 h, single experiment
  % worm pairing: 100%
[2]; 1 μM, 72 h, single experiment
  % worm pairing: 100%
[2]; 10 μM, 24 h, SD in brackets
  % worm pairing: 90 (14) %
[2]; 10 μM, 48 h, SD in brackets
  % worm pairing: 90 (14) %
[2]; 10 μM, 72 h, SD in brackets
  % worm pairing: 90 (14) %
[2]; 20 μM, 24 h, SD in brackets
  % worm pairing: 0 (0) %
[2]; 20 μM, 48 h, SD in brackets
  % worm pairing: 20 (0) %
[2]; 20 μM, 72 h, SD in brackets
  % worm pairing: 60 (0) %
[3]; 1 μM, 24 h, single experiment
  % egg laying: 72%
[3]; 1 μM, 48 h, single experiment
  % egg laying: 68%
[3]; 1 μM, 72 h, single experiment
  % egg laying: 95%
[3]; 10 μM, 24 h, SD in brackets
  % egg laying: 61(6) %
[3]; 10 μM, 48 h, SD in brackets
  % egg laying: 82 (12) %
[3]; 10 μM, 72 h, SD in brackets
  % egg laying: 79 (19) %
[3]; 20 μM, 24 h, SD in brackets
  % egg laying: 11 (6) %
[3]; 20 μM, 48 h, SD in brackets
  % egg laying: 7 (5) %
SmSirt2
  inhibition at 50 µM: 53.9%
[4]; 0.1 μM
  percentage of reduction of NTS viability, 72 h: 20 (0) %
[4]; 1 μM
  percentage of reduction of NTS viability, 72 h: 100 (0) %
[4]; 10 μM
  percentage of reduction of NTS viability, 72 h: 100 (0) %
[4]; 20 μM
  percentage of reduction of NTS viability, 72 h: 100 (0) %
[4]
  IC50: 0.12 µM
[4]; Schistosoma mansoni
  IC50: ~0.1 µM
[5]; 24 h
  reduction of viability of adult worm pairs: approximately 80%
[5]; 72 h
  viability of adult worm pairs after recovery: 50%
hSirt2; [7]
  IC50: 10.8 ± 0.3 µM

## CCCn1c(=O)nc2oc3ccc4ccccc4c3cc-2c1=O [Compound 5, 10-Propyl-9H-benzo[5,6]chromeno[2,3-d]pyrimidine-9,11(10H)-dione]
[1]; 1 μM
  adult worms' percentage of viability reduction, 72 h: 25.9 (3.7) %
[1]; 20 μM
  adult worms' percentage of viability reduction, 72 h: 91.7 (2.8) %
[1]
  IC50: 3.35 µM
[2]; 1 μM, 24 h, single experiment
  % worm pairing: 100%
[2]; 1 μM, 48 h, single experiment
  % worm pairing: 100%
[2]; 1 μM, 72 h, single experiment
  % worm pairing: 100%
[2]; 10 μM, 24 h, SD in brackets
  % worm pairing: 90 (14) %
[2]; 10 μM, 48 h, SD in brackets
  % worm pairing: 100 (14) %
[2]; 10 μM, 72 h, SD in brackets
  % worm pairing: 100 (14) %
[2]; 20 μM, 24 h, SD in brackets
  % worm pairing: 0 (0) %
[2]; 20 μM, 48 h, SD in brackets
  % worm pairing: 10 (14) %
[2]; 20 μM, 72 h, SD in brackets
  % worm pairing: 0 (0) %
[3]; 1 μM, 24 h, single experiment
  % egg laying: 104%
[3]; 1 μM, 48 h, single experiment
  % egg laying: 94%
[3]; 1 μM, 72 h, single experiment
  % egg laying: 144%
[3]; 10 μM, 24 h, SD in brackets
  % egg laying: 55 (15) %
[3]; 10 μM, 48 h, SD in brackets
  % egg laying: 73 (33) %
[3]; 10 μM, 72 h, SD in brackets
  % egg laying: 75 (7) %
[3]; 20 μM, 24 h, SD in brackets
  % egg laying: 12 (16) %
[3]; 20 μM, 48 h, SD in brackets
  % egg laying: 11 (14) %
[3]; 20 μM, 72 h, SD in brackets
  % egg laying: 13 (10) %
SmSirt2
  IC50: 8 ± 0.7 µM
[4]; 0.1 μM
  percentage of reduction of NTS viability, 72 h: 24 (0) %
[4]; 1 μM
  percentage of reduction of NTS viability, 72 h: 100 (0) %
[4]; 10 μM
  percentage of reduction of NTS viability, 72 h: 100 (0) %
[4]; 20 μM
  percentage of reduction of NTS viability, 72 h: 100 (0) %
[4]
  IC50: 0.12 µM
[4]; Schistosoma mansoni
  IC50: ~0.1 µM
[5]; 24 h
  reduction of viability of adult worm pairs: approximately 80%
[5]; 72 h
  viability of adult worm pairs after recovery: 40%
hSirt2; [7]
  IC50: 12.5 ± 0.5 µM

## CCCCn1c(=O)nc2oc3ccc4ccccc4c3cc-2c1=O [Compound 6, 10-Butyl-9H-benzo[5,6]chromeno[2,3-d]pyrimidine-9,11(10H)-dione]
SmSirt2
  IC50: 7.8 ± 0.8 µM
[4]; 20 μM
  percentage of reduction of NTS viability, 72 h: 34 (1) %
hSirt2; [7]
  IC50: 16.9 ± 0.8 µM

## O=C1NC(=O)N(c2ccccc2)C(=O)/C1=C/c1c(O)ccc2ccccc12 [Compound 10]
SmSirt2
  inhibition at 50 µM: 3.5%
  inhibition of SmSirt2 in words: failed to inhibit
hSirt2; 50 μM, ref footnote a (reference number not given)
  % inhibition at 50 μM hSirt2: 0.7% ^a
hSirt2; ref not printed (previously reported)
  inhibition of hSirt2 in words: failed to inhibit

## CC(/C=C/C(=O)NO)=C\[C@@H](C)C(=O)c1ccc(N(C)C)cc1 [TSA]
[6]
  cytosolic cytochrome c level: increased levels of cytochrome c
